What was measured:
[1] = in-vitro digestion assays of emulsion; type: in vitro ADME; settings: intestinal and/or colon pH vs stomach pH
Excerpt: In certain embodiments, the emulsion formed may be stable at stomach pH, e.g., at a pH of about 1 to about 3, about 1.2 to 2.9, etc. In certain embodiments, the emulsion formed may be stable at intestinal and/or colon pH, e.g., at a pH of about 5 to about 7, about 5.5 to about 6.9, etc. […] In accordance with certain aspects of the disclosure, preferential release of tricaprylin in the intestines and/or colon rather than the stomach may increase bioavailability of the tricaprylin given the location of lipid digestion enzymes in these areas.

[2] = test system: participants with frequent migraine; test: randomised, double-blind, placebo-controlled study of tricaprylin as AC-SD-03 for the reduction of migraine; type: in vivo, human
Excerpt: This is a randomised, double-blind, placebo-controlled, parallel-group, multi-centre study of tricaprylin as AC-SD-03 compared with placebo for the reduction of migraine in participants with frequent migraine.
Following a screening period of up to 2 weeks, the study duration is 17 weeks including a 4-week baseline measurement period, after which randomisation occurs, a 12-week treatment period and a 1-week safety follow-up period.
The study will be completed in two parts. In Part 1, 54 participants will be randomised to receive tricaprylin as AC-SD-03, or placebo, in a 1:1 ratio. Once 54 participants are randomised, enrolment will be paused until the randomised participants have completed the study. Based on an unblinded analysis of the data from all evaluable patients from Part 1, a decision to proceed to Part 2 (enrolment of additional participants) will be taken. The decision to continue to Part 2 will be made by the Sponsor, based on a number of factors including the one-sided p-value for the analysis of the primary endpoint, ΔMDMth3, the safety and tolerability profile observed during Part 1, the observed between-subject variability, as well as trial conduct feasibility. The size of Part 2 will be determined by the between-subject variability observed in Part 1, and will be between 80 and 180 participants.
Investigational Medicinal Products: The formulation AC-SD-03 contains the active compound tricaprylin and excipients, 1:1.5. Thus 75 g AC-SD-03 contains 30 g tricaprylin and 45 g excipients (carrier, emulsifiers and flavouring). The placebo formulation, AC-SD-03P, contains 30 g safflower oil in place of the active compound tricaprylin and identical excipients to the active formulation.
Treatment Groups and Duration: At the Baseline Visit, all participants will receive a sentinel dose of 12.5 g AC-SD-03 (containing 5 g tricaprylin). […] Those that do tolerate the sentinel dose and meet other eligibility criteria, will enter the baseline measurement period of 4 weeks to determine migraine day participant eligibility for the study and to establish baseline data for comparison of endpoints during the study.
After the 4 weeks baseline measurement period, those who record 4-24 migraine days per month will be randomised to AC-SD-03 or placebo (AC-SD-03P) and will titrate from 12.5 g twice a day to 75 g twice a day, over the course of 2 weeks. Participants who have fewer than four or greater than 24 headache days per month in the baseline period will be discontinued from the study. The participant should not be told the number of migraine headache days on which eligibility is based to avoid biased reporting.
Once titration has completed, all participants will continue on the target dose they are on over an additional 10-week maintenance period.
The primary endpoint will be change from baseline in the number of migraine headache days during Month 3 (ΔMDMth3).
The secondary endpoints are: • Change from baseline in the number of migraine headache days during Month 1 (ΔMDMth1) and Month 2 (ΔMDMth2) of treatment and overall, from Months 1-3; • Change from baseline in duration of migraine of moderate to severe intensity during treatment months 1, 2 and 3; • Change from baseline in duration of migraine during treatment months 1, 2 and 3; • The proportion of participants with a 50% reduction from baseline in number of migraine headache days in treatment months 1, 2, and 3; • Change from baseline in monthly acute migraine medicine use during treatment months 1, 2 and 3; • Time to first usage of acute migraine medication; • Change from baseline Headache Impact Test (HIT-6) score at the end of Months 1, 2 and 3; • Incidence of adverse events; • Clinical safety laboratory tests; • Vital signs, ECGs, C-SSRS; […]

[3] = test system: trigeminal autonomic cephalgia (left hemi-cephalgia), person; test: case report: trigeminal autonomic cephalgia responsive to tricaprylin; type: in vivo, human
Excerpt: A person presented with a history of waxing and waning left hemi-cephalgia over the course of 10 years. Their past medical history included bilateral loss of hearing (right worse than left) and past episodes of dizziness leading to a diagnosis of possible Menieres disease. They had hyperlipedemia controlled with a statin. They had some excess weight (BMI 30.8), was a vegetarian and was physically active.
The cephalgia was described as a dull achy non-throbbing pain that when present is continuous over the left side of the face and across the left scalp. The pain appeared to be centered around the eye and was described as if […] were being poked in the eye. The pain also involved the left cheek and left scalp. They could not identify any specific trigger to the pain but did note that it was accompanied by tenderness to touch of the scalp on the left side of the head, including sensitivity to hair brushing. When the pain was present they would be aware of it upon awakening in the morning and it would persist throughout the day.
They had no other headache types, and had not experienced episodes of nasal stuffiness, or pupillary changes. They noted occasional excess lacrimation of the left eye. At one point they were investigated for potential ‘sinus problems’ and no sinus condition was diagnosed. […] […] self-medicated with occasional paracetamol which provided modest relief.
The subject began a daily treatment regimen with Axona®, a medical food containing the active ingredient tricaprylin.
At the time of presentation the headache had recurred to an intensity of 4-6/10 and they were restarted on a course of Axona®, starting with 5 g tricaprylin per day, increasing over 2 weeks to 20 g a day.

CH attacks = settings: Di Lorenzo et al 2018; cited from earlier work

CCCCCCCC(=O)OCC(COC(=O)CCCCCCC)OC(=O)CCCCCCC [tricaprylin]
release of encapsulated tricaprylin from emulsion [1]: released from emulsion at intestinal and/or colon pH
Discontinued treatment prior to completion, number of subjects ([2]; 12-week treatment, 40 treated): 18
Discontinued treatment prior to completion, percent of subjects ([2]; 12-week treatment, 40 treated): (45.0%)
Primary reason for discontinuation: Adverse Event, number of subjects ([2]; 12-week treatment, 40 treated): 12
Primary reason for discontinuation: Adverse Event, percent of subjects ([2]; 12-week treatment, 40 treated): (30.0%)
Change from baseline in migraine headache days, Month 2 ([2]; Month 2, vs placebo, one-sided p=0.066 vs target of p<0.2): clinically-relevant benefit
Change from baseline in migraine headache days, Month 3 (primary endpoint) ([2]; Month 3, EEITS, vs placebo, p=0.269 vs target of p<0.2): positive, clinically-relevant trend

CC(=O)Nc1ccc(O)cc1 [paracetamol]
relief of cephalgia ([3]; occasional self-medication): modest relief

O=C(O)CCCO [GHB]
prevention of CH attacks (CH attacks): has been shown to prevent CH attacks

CN(C)CCC=C1c2ccccc2CCc2ccccc21 [amitriptyline]
effect on degree of discomfort ([3]; 10 mg, earlier treatment of the same patient): reduced the degree of discomfort partially
adverse effect ([3]; 10 mg, earlier treatment of the same patient, discontinued): fatigue
